Experimental data taken from patent publication US9012411B2, “Formulations from derivatives of curcumin, paclitaxel, and aspirin” (Organomed Corporation, priority 2009, dated 2015).
“Also recorded” adds a separate entry of the source.

How the values were obtained:
[1] = test system: carrageenan induced rat paw edema; assay: Carrageenan induced rat paw edema; format: in vivo, albino rats; settings: for Percent inhibition of paw edema (Std. Error): Example 9, 100 mg/kg oral with food
Protocol: Animals were kept under 13 hour day night cycle. Animals were given standard diet and water was provided ad, libitum. All animals were acclimatized for at least one week before the experimental session. Animals were divided in to five groups. Each group consisted of 8 animals.
Pedal inflammation in albino rats of either sex was produced according to the method of Winter et al., (Proc Soc Exp Biol Med 1963; 111: 544-7). An injection was made with 0.1 ml of 1% carrageenan (SIGMA) suspension into the right hind foot of each rat in the plantar region. […] Control group 5 was given 0.5 ml saline and groups 1 and 2 received aspirin. Increase in linear paw circumference was measured by tying a piece of cotton thread round the rat's paw, and noting the point of intersection of two ends on a meter scale. This was taken as an index of increase in paw volume, which is a measure of oedema (Bamgbose S O A, Noamesi B K. Planta Med 1981; 42: 392-6). Measurements were taken immediately before and at 1, 2 and 3 hours after carrageenan injection. The inhibitory activity was calculated according to the following formula (Awe S O, Olajide O A, Adeboye J O, Makinde J M. Indian J Pharmacol 1998; 30: 38-42):
[formula] Ct-Linear paw circumference 3 hours after carrageenan injection and Co-Linear paw circumference before carrageenan injection.
Albino rats obtained from central animal house of institute were used in the study. The animals were kept under 12 hour day night cycle. Animals were given standard diet and water was provided ad libitum. All animals were acclimatized for at least one week before the experimental session. Animals were divided into twelve groups in the carrageenan induced paw edema and tail flick method. Each group consisted of 4 animal each.
Animals were divided into eight groups in the carrageenan induced paw edema and tail flick method. Each group consisted of 6 animal each. The groups received various chemicals as given in Table 16 by oral administration with food. The following methods were used to evaluate the activity of the compositions:
Pedal inflammation in albino rats of either sex was produced according to the method of Winter et al. (Proc. Soc. Exp. Biol. Med., 1963, 111: 544-547). An injection was made with 0.1 ml of 1% carrageenan (SIGMA) suspension into the right hind foot of each rat in the plantar region. The various chemicals were given 30 minutes before carrageenan injection. Increase in linear paw circumference was measured by tying a piece of cotton thread round the rat's paw, and noting the point of intersection of two ends on a meter scale. This was taken as an index of increase in paw volume, which is a measure of edema (Bamgbose, S. O. A. & Noamesi, B. K., Planta. Med., 1981, 42: 392-396). Measurements were taken immediately before and at 1, 2 and 3 hours after carrageenan injection. The inhibitory activity was calculated according to the following formula (Awe S O, Olajide O A, Adeboye J O, Makinde J M. Indian J. Pharmacol., 1998; 30: 38-42):
Animals were divided into six groups in the carrageenan induced paw edema and tail flick method. Each group consisted of 8 animals each. Carrageenan-induced rat paw edema and Tail flick test were performed as discussed above in Example 8. Data were analyzed using analysis of variance (ANOVA) with Posthoc Bonferroni multi-comparisons. P<0.05 was considered as statistically significant.

[2] = test system: tail flick latency in rats; assay: Tail flick test (analgesic activity); format: in vivo, albino rats; settings: for Tail flick latency time: Example 9, 100 mg/kg oral with food
Protocol: Rats were screened for tail flip reaction with a cut-off time of 5 seconds. For each animal, the tail flick latency was obtained thrice before drug administration and mean was used as pre-drug latency. The tail flick latencies were measured at 0, 0.5, 1, 1.5, 2 and 3 h after administration chemicals.
Albino rats obtained from central animal house of institute were used in the study. The animals were kept under 12 hour day night cycle. Animals were given standard diet and water was provided ad libitum. All animals were acclimatized for at least one week before the experimental session. […] Each group consisted of 4 animal each.
Rats were screened for tail flip reaction with a cut-off time of 5 seconds. For each animal, the tail flick latency was obtained thrice before drug administration and mean was used as pre-drug latency. The tail flick latencies were measured at 0, 0.5, 1, 1.5, 2 and 3 h after administration of chemicals.
Each group consisted of 8 animals each. […] Data were analyzed using analysis of variance (ANOVA) with Posthoc Bonferroni multi-comparisons. P<0.05 was considered as statistically significant.

[3] = test system: breast (SKBR3) cancer cell line; assay: Cellular inhibition, Alamar Blue; format: cell-based
Protocol: (§1) Assays were performed with 3 cancer cell lines: breast (SKBR3), pancreatic (Panc1), prostate (PC-3) and 1 normal (nor-cancer) cell line (WI-38). Compounds were delivered to the cells after dissolving in DMSO. Five dilutions per compound were tested on a total of 4 cell lines in 96 well plates. Cellular inhibition was measured using Alamar Blue. After addition of compound a 24 hour and 48 hour time point using fluorescent plate reader was taken. Data from plate reader was analyzed in the following way: % inhibition bar graphs, % inhibition line graphs and IC50 growth inhibition values. In Tables 7-14, IC50 units are Molar (M).

[4] = test system: normal (non-cancer) cell line WI-38; assay: Cellular inhibition, Alamar Blue; format: cell-based
Protocol: as §1

[5] = test system: pancreatic (Panc1) cancer cell line; assay: Cellular inhibition, Alamar Blue; format: cell-based
Protocol: as §1

[6] = test system: prostate (PC-3) cancer cell line; assay: Cellular inhibition, Alamar Blue; format: cell-based
Protocol: as §1

Substance	Tail flick latency time ([2]; 30 min)	Tail flick latency time ([2]; 60 min)	Tail flick latency time ([2]; 90 min)	Tail flick latency time ([2]; 120 min)	Tail flick latency time ([2]; 180 min)	Tail flick latency time ([2]; column headed min)	IC50 ([3]; SKBR3, 24 hours)	IC50 ([3]; SKBR3, 48 hours)	IC50 ([4]; WI38, 24 hours)	IC50 ([4]; WI38, 48 hours)	IC50 ([5]; PANC1, 24 hours)	IC50 ([5]; PANC1, 48 hours)	IC50 ([6]; PC3, 24 hours)	IC50 ([6]; PC3, 48 hours)	also measured
Curcumin diglutarate [NJ-104-5]	3.5625 s	3.6125 s	3.7375 s	3.05 s	3.5625 s	3.05 s	–	–	–	–	–	–	–	–	Percent inhibition of paw edema (Std. Error) ([1]; 1 hr): 49.26 (3.94) %; Percent inhibition of paw edema (Std. Error) ([1]; 2 hr): 37.50 (5.11) %; Percent inhibition of paw edema (Std. Error) ([1]; 3 hr): 20.05 (8.34) %; Analgesic activity, tail flick (in words) ([2]; Example 9, 100 mg/kg oral): strong activity at 90 and 180 minutes; also recorded: strong analgesic activity
curcumin-glutarate [MT-76-1]	–	–	–	–	–	–	169 µM	118 µM	298 µM	166 µM	35.4 µM	123 µM	127 µM	71.6 µM	–
diacetylcurcumin [NJ-58-1]	3.675 s	3.6125 s	3.6375 s	3.4375 s	3.675 s	3.4375 s	171 µM	125 µM	4390 µM	155 µM	268 µM	133 µM	96.1 µM	67 µM	Anti-inflammatory activity, paw edema (in words) ([1]; Example 9, 100 mg/kg oral): strong; Percent inhibition of paw edema (Std. Error) ([1]; 1 hr, listed as Curcumin diacetate): 76%; Percent inhibition of paw edema (Std. Error) ([1]; 1 hr, listed as NJ-104-4): 76.49 (8.35) %; Percent inhibition of paw edema (Std. Error) ([1]; 2 hr, listed as Curcumin diacetate): 80%; Percent inhibition of paw edema (Std. Error) ([1]; 2 hr, listed as NJ-104-4): 80.56 (5.84) %; Percent inhibition of paw edema (Std. Error) ([1]; 3 hr, listed as Curcumin diacetate): 76%; Percent inhibition of paw edema (Std. Error) ([1]; 3 hr, listed as NJ-104-4): 76.74 (8.22) %; inhibition of normal lung cells (WI-38) ([4]; 24 hours): less than 10%
